Measured values taken from US11655258B2, “Heterocycle derivatives as pesticides” (BAYER AKTIENGESELLSCHAFT, priority 2017, dated 2023).
Where two headings read alike, the source gives them in different places.

How the values were obtained:
[1] = log P by HPLC on reversed-phase column (EEC Directive 79/831 Annex V.A8); type: physicochemical; details: reversed-phase HPLC column (C18); pH 7.8, 0.001 molar aqueous ammonium bicarbonate/acetonitrile, 55° C.; read-out: log P (neutral)
Protocol: The log P values are measured according to EEC Directive 79/831 Annex V.A8 by HPLC (high-performance liquid chromatography) on a reversed-phase column (C 18). Temperature: 55° C.
The LC-MS determination in the neutral range is effected at pH 7.8 with 0.001 molar aqueous ammonium bicarbonate solution and acetonitrile as mobile phases; linear gradient from 10% acetonitrile to 95% acetonitrile. Called log P (neutral) in the table.
Calibration is carried out using unbranched alkan-2-ones (having 3 to 16 carbon atoms) with known Log P values (Log P values determined on the basis of the retention times by linear interpolation between two successive alkanones).

[2] = tested on: Myzus persicae; assay: Myzus persicae spray test (Chinese cabbage leaf discs); type: in vivo; details: foliar, 120 h, read-out: efficacy
Protocol: Myzus persicae Spray Test • Solvent: 78 parts by weight of acetone • 1.5 parts by weight of dimethylformamide • Emulsifier: alkylaryl polyglycol ether
(§1) To produce a suitable active compound preparation, 1 part by weight of active compound is dissolved using the stated parts by weight of solvent and made up with water containing an emulsifier concentration of 1000 ppm until the desired concentration is attained. To produce further test concentrations, the formulation is diluted with emulsifier-containing water.
Discs of Chinese cabbage leaves (Brassica pekinensis) infested by all stages of the green peach aphid (Myzus persicae) are sprayed with an active compound formulation of the desired concentration.
(§2) After 5 days, the efficacy in % is determined. 100% means that all the aphids have been killed; 0% means that no aphids have been killed.

[3] = tested on: Myzus persicae; assay: Myzus persicae oral test; type: in vivo; details: 120 h, read-out: efficacy
Protocol: Myzus persicae Oral Test • Solvent: 100 parts by weight of acetone
To produce a suitable preparation of active compound, 1 part by weight of active compound is dissolved using the specified parts by weight of solvent and made up with water until the desired concentration is attained.
50 μl of the active compound preparation are transferred into microtitre plates and made up to a final volume of 200 μl with 150 μl of IPL41 insect medium (33%+15% sugar). Subsequently, the plates are sealed with parafilm, which a mixed population of green peach aphids (Myzus persicae) within a second microtitre plate is able to puncture and imbibe the solution through.
as §2

[4] = tested on: Phaedon cochleariae; assay: Phaedon cochleariae spray test; type: in vivo; details: 168 h, read-out: efficacy
Protocol: Phaedon cochleariae—Spray Test • Solvent: 78.0 parts by weight of acetone • 1.5 parts by weight of dimethylformamide • Emulsifier: alkylaryl polyglycol ether
as §1
Discs of Chinese cabbage leaves (Brassica pekinensis) are sprayed with an active compound formulation of the desired concentration and, after drying, populated with larvae of the mustard beetle (Phaedon cochleariae).
After 7 days, the efficacy in % is determined. 100% means that all the beetle larvae have been killed; 0% means that no beetle larvae have been killed.

[5] = tested on: Myzus persicae; assay: Myzus persicae spray test (MYZUPE S), bell pepper plants; type: in vivo; details: 144 h, 6 dat, read-out: % efficacy
Protocol: Myzus persicae—Spray Test (MYZUPE S) • Solvent: 14 parts by weight of dimethylformamide • Emulsifier: alkylaryl polyglycol ether
as §1, with “water. If the addition of ammonium salts or/and penetrants is required, these are each added in a concentration of 1000 ppm to the formulation solution.” for “water.”
Bell pepper plants (Capsicum annuum) severely infested with the green peach aphid (Myzus persicae) are treated by spraying with the active compound formulation in the desired concentration.
After the desired time, the kill in % is determined. 100% means that all the animals have been killed; 0% means that no animals have been killed.

[6] = tested on: Aphis gossypii; assay: Aphis gossypii spray test (APHIGO); type: in vivo; details: 144 h, 6 dat, read-out: % efficacy
Protocol: Aphis gossypii Spray Test (APHIGO) • Solvent: 14 parts by weight of dimethylformamide • Emulsifier: alkylaryl polyglycol ether
as §1, with “water. If the addition of ammonium salts or/and penetrants is required, these are each added in a concentration of 1000 ppm to the formulation solution.” for “water.”
Cotton plants (Gossypium hirsutum) heavily infested by the cotton aphid (Aphis gossypii) are sprayed with an active compound formulation of the desired concentration.
After the desired time, the kill in % is determined. 100% means that all the aphids have been killed; 0% means that no aphids have been killed.

[7] = tested on: Ctenocephalides felis; assay: Ctenocephalides felis oral test; type: in vivo; details: application rate 100 ppm in citrated cattle blood, after 2 days
Protocol: Ctenocephalides felis—Oral Test • Solvent: dimethyl sulfoxide
To produce a suitable active compound formulation, 10 mg of active compound are mixed with 0.5 ml of dimethyl sulfoxide. Dilution with citrated cattle blood gives the desired concentration.
About 20 unfed adult cat fleas (Ctenocephalides felis) are placed into a chamber which is closed at the top and bottom with gauze. A metal cylinder whose bottom end is closed with parafilm is placed onto the chamber. The cylinder contains the blood/active compound formulation, which can be imbibed by the fleas through the parafilm membrane.
After 2 days, the kill in % is determined. 100% means that all of the fleas have been killed; 0% means that none of the fleas have been killed.

[8] = tested on: Lucilia cuprina; assay: Lucilia cuprina test; type: in vivo; details: application rate 100 ppm, L1 larvae, after 2 days
Protocol: Lucilia cuprina Test • Solvent: dimethyl sulfoxide
To produce a suitable active compound formulation, 10 mg of active compound are mixed with 0.5 ml of dimethyl sulfoxide, and the concentrate is diluted with water to the desired concentration.
About 20 L1 larvae of the Australian sheep blowfly (Lucilia cuprina) are transferred into a test vessel containing minced horsemeat and the active compound formulation of the desired concentration.
After 2 days, the kill in % is determined. 100% means that all the larvae have been killed; 0% means that no larvae have been killed.

[9] = application rate 100 g/ha, after 5 days
[10] = application rate 4 ppm, after 5 days
[11] = application rate 100 g/ha, after 7 days

With `CCS(=O)(=O)c1c(C(N)=O)nc2cc(C(F)(F)F)ccn12` [3-(Ethylsulfonyl)-7-(trifluoromethyl)imidazo[1,2-a]pyridine-2-carboxamide] the chromatographic logP [1] was 1.57.
With `CCS(=O)(=O)c1c(C#N)nc2cc(C(F)(F)F)ccn12` [3-(Ethylsulfonyl)-7-(trifluoromethypimidazo[1,2-a]pyridine-2-carbonitrile] the chromatographic logP [1] was 2.28.
Work on `FC(F)(F)c1cn2nc(-c3nc4ccccc4cc3Br)nc2cn1` [3-Bromo-2-[6-(trifluoromethyl)-[1,2,4]triazolo[1,5-a]pyrazin-2-yl]quinoline] yielded a chromatographic logP [1] of 2.98.
Compound `N=C(Nc1cnc(C(F)(F)F)cn1)c1nc2ccccc2cc1Br` [3-Bromo-N-[5-(trifluoromethyl)pyrazin-2-yl]quinoline-2-carboxamidine] has a chromatographic logP [1] of 3.01.
Work on `CCS(=O)(=O)c1cc2ccccc2nc1-c1nc2cnc(C(F)(F)F)cn2n1` [Example I-02, 3-Ethylsulfonyl-2-[6-(trifluoromethyl)-[1,2,4]triazolo[1,5-a]pyrazin-2-yl]quinoline] yielded a pest or weed control at 100 g/ha [2, 9] of 100%, a pest or weed control at 4 ppm [3, 10] of 90% and a chromatographic logP [1] of 2.44. The pest or weed control at 100 g/ha [4, 11] was 100%.
Compound `CCS(=O)(=O)c1cc2ccccc2nc1-c1nc2ccc(C(F)(F)F)cn2n1` [Example I-03] has a pest or weed control at 100 g/ha [2, 9] of 90%, a pest or weed control at 4 ppm [3, 10] of 100% and a pest or weed control at 100 g/ha [4, 11] of 100%.
With `CCS(=O)(=O)c1c(-c2nc3ccc(C(F)(F)F)cn3n2)nc2n1CCCC2` [Example I-04] the pest or weed control at 4 ppm [3, 10] was 100%.
For `CCS(=O)(=O)c1c(-c2nc3ccc(C(F)(F)F)cn3n2)nc2cc(OCC(F)(F)F)ccn12` [Example I-06], the pest or weed control at 4 ppm [3, 10] was 100%, the Emax at 20 ppm [5] was 99% and the Emax at 20 ppm [6] was 95%. The pest or weed control at 20 g/ha ([4]; application rate 20 g/ha, after 7 days) was 100% and the pest or weed control at 100 g/ha [4, 11] was 100%.
For `CCS(=O)(=O)c1c(-c2nc3ccc(C(F)(F)F)cn3n2)nc2cc(NC(C)=O)ccn12` [Example I-07], the pest or weed control at 4 ppm [3, 10] was 100% and the “efficacy (kill)” value [7] was 100%.
For `CCS(=O)(=O)c1c(-c2nc3ccc(C(F)(F)F)cn3n2)nc2cc(NC(=O)OC)ccn12` [Example I-08], the pest or weed control at 100 g/ha [2] was 100%, the pest or weed control at 4 ppm [3] was 100% and the “efficacy (kill)” value [7] was 90%. The “efficacy (kill)” value [8] was 100% and the pest or weed control at 100 g/ha [4] was 83%.
Compound `CCS(=O)(=O)c1c(-c2nc3ccc(C(F)(F)F)cn3n2)nc2cc(C(=O)OC)ccn12` [Example I-11] has a pest or weed control at 4 ppm [3, 10] of 100%.
With `CCS(=O)(=O)c1c(-c2nc3ccc(C(F)(F)F)cn3n2)ncc2ccccc12` [Example I-15] the pest or weed control at 100 g/ha [2, 9] was 90% and the pest or weed control at 4 ppm [3, 10] was 100%.
Work on `CCS(=O)(=O)c1c(-c2nc3cnc(C(F)(F)F)cn3n2)ncc2ccccc12` [Example I-16] yielded a pest or weed control at 100 g/ha [2, 9] of 100% and a pest or weed control at 4 ppm [3, 10] of 100%.
Work on `CCSc1c(C(=O)OC)nc2cc(C(F)(F)F)ccn12` [Methyl 3-(ethylsulfanyl)-7-(trifluoromethyl)imidazo[1,2-a]pyridine-2-carboxylate] yielded a chromatographic logP [1] of 2.56.
Work on `CCS(=O)(=O)c1c(C(=O)OC)nc2cc(C(F)(F)F)ccn12` [Methyl 3-(ethylsulfonyl)-7-(trifluoromethyl)imidazo[1,2-a]pyridine-2-carboxylate] yielded a chromatographic logP [1] of 2.15.
